Data set [1] is described as follows: Moisture content of the solid. The data set is classed as physicochemical. As to the method: Thermo gravimetric analysis (TGA) used for estimation of solvent/water content of dried material is performed using a TA-instruments TGA-Q500 about 10 mg sample is heated 10°/min in an open pan under nitrogen flow.
Vortioxetine Adipate (30.0 g) and dichloromethane (450 ml) were charged in round bottom flask stirred it for 5 mins. Solution of NaOH (8.1 g in 300 ml water) and solution of NaCl (7.5 g in 75 ml water) were added into above resulting solution and stirred it till clear solution was observed. Organic layer was separated out. HBr in acetic acid (18 g) was added into organic layer and stirred it for 30 mins. Acetic acid (150 ml) was added into reaction mixture. Dichloromethane was distilled out atmospherically from reaction mixture. Acetic acid (200 ml) and water (50 ml) were added into the reaction mixture. Water (1250 ml) was taken into another round bottom flask at 30±5° C. and cooled to 7±3° C. Reaction mixture was added into water containing round bottom flask within 15-30 minutes at 7±3° C. and after addition, reaction mixture's temperature allowed to come to 20±2° C. Reaction mixture was stirred for 30 minutes at 20±2° C. Reaction mixture was filtered and washed it with water (50 ml). Solid was dried to get Vortioxetine Hydrobromide (Form Ad) under vacuum for 6-8 hrs at 45±3° C. (Moisture content of solid is less than 1.0% w/w) […]

A short description of data set [2]: Polymorphic stability on exposure to moisture. The data set is classed as physicochemical. The protocol:
Vortioxetine Adipate (30.0 g) and dichloromethane (450 ml) were charged in round bottom flask stirred it for 5 mins. Solution of NaOH (8.1 g in 300 ml water) and solution of NaCl (7.5 g in 75 ml water) were added into above resulting solution and stirred it till clear solution was observed. Organic layer was separated out. HBr in acetic acid (18 g) was added into organic layer and stirred it for 30 mins. Acetic acid (150 ml) was added into reaction mixture. Dichloromethane was distilled out atmospherically from reaction mixture. Acetic acid (200 ml) and water (50 ml) were added into the reaction mixture. Water (1250 ml) was taken into another round bottom flask at 30±5° C. and cooled to 7±3° C. Reaction mixture was added into water containing round bottom flask within 15-30 minutes at 7±3° C. and after addition, reaction mixture's temperature allowed to come to 20±2° C. Reaction mixture was stirred for 30 minutes at 20±2° C. Reaction mixture was filtered and washed it with water (50 ml). Solid was dried to get Vortioxetine Hydrobromide (Form Ad) under vacuum for 6-8 hrs at 45±3° C. (Moisture content of Vortioxetine Hydrobromide (Form Ad) is less than 1.0% w/w). Vortioxetine Hydrobromide (Form Ad) was exposed at 40% RH and 25° C. for 2 hours to get Vortioxetine Hydrobromide (Form A). (Moisture content of Vortioxetine Hydrobromide (Form A) is between 4.2-4.8% w/w)

Structures can show the parent of a compound that is named as a salt.

Take `Cc1ccc(Sc2ccccc2N2CCNCC2)c(C)c1` [Vortioxetine Hydrobromide (Form Ad), Vortioxetine Hydrobromide]: the Moisture content result in data set [1] (solid dried under vacuum for 6-8 hrs at 45±3° C.) is on record as “less than 1.0 % w/w”. Moreover, the “Form change when exposed to moisture” value in data set [2] is reported as “converts into form A”.
As for `Cc1ccc(Sc2ccccc2N2CCNCC2)c(C)c1` [Vortioxetine Hydrobromide (Form A), Vortioxetine Hydrobromide], the Moisture content in data set [1] (after Form Ad was exposed at 40% RH and 25° C. for 2 hours) is recorded as 4.2-4.8 % w/w.

For the origin of these results see US10071092B2, “Polymorphic forms of vortioxetine and its pharmaceutically acceptable salts” (ALEMBIC PHARMACEUTICALS LIMITED, priority 2014, dated 2018).
